{
  "source": "patent US7939561B2",
  "about": "“Blister packaging for acute pain regimens” (APR Applied Pharma Research s.a., priority 2006, dated 2011)",
  "origin": "cited, not measured here",
  "data": [
    {"smiles": "O=C(O)Cc1ccccc1Nc1c(Cl)cccc1Cl", "note": "[diclofenac potassium]", "values": [
      {"measurement": "behaviour in an acidic environment", "result": "tendency to precipitate"}
    ]}
  ]
}
